Results: patent publication US10479780B2, “Aminopyrazole derivatives” (Chugai Seiyaku Kabushiki Kaisha, priority 2015, dated 2019)
pIC50: −log10 of the molar value.

Key:
Assay type in all cases: biochemical
human Yes1 enzyme = target: T1, human Yes1 enzyme (Homo sapiens, UniProt P07947); test: Yes1 enzyme inhibitory activity (time-resolved fluorometry, biotinylated peptide phosphorylation); details: biotinylated peptide phosphorylation, read-out: YES_IC50
T1 construct: made in house
Procedure, shortened: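 Inhibition was expressed against a compound-free control to give IC50, using TR-FRET read-out (Eu-cryptate anti-pTyr antibody, streptavidin-XL665).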

human Lck enzyme = target: T2, human Lck enzyme (Homo sapiens, UniProt P06239); test: Lck enzyme inhibitory activity (time-resolved fluorometry, biotinylated peptide phosphorylation); details: biotinylated peptide phosphorylation, read-out: LCK_IC50
T2 construct: purchased Carna Biosciences, Inc. 08-170
Procedure, shortened: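 Readout pairs a europium cryptate-labelled anti-phosphotyrosine antibody with XL665-streptavidin, measured by time-resolved fluorescence. IC50 derived from percent inhibition against untreated controls.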

human Src enzyme = target: T3, human Src enzyme (Homo sapiens, UniProt P12931); test: Src enzyme inhibitory activity (time-resolved fluorometry, biotinylated peptide phosphorylation); details: biotinylated peptide phosphorylation, read-out: SRC_IC50
T3 construct: purchased Carna Biosciences, Inc. 08-173
Procedure, shortened: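 Compounds were tested for blocking tyrosine phosphorylation of a biotinylated peptide substrate by recombinant human Src. Phosphorylated product was quantified by time-resolved fluorometry using europium cryptate and XL665 conjugates, and IC50 was calculated against the compound-free control.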

T3 sequence (P12931 whole entry): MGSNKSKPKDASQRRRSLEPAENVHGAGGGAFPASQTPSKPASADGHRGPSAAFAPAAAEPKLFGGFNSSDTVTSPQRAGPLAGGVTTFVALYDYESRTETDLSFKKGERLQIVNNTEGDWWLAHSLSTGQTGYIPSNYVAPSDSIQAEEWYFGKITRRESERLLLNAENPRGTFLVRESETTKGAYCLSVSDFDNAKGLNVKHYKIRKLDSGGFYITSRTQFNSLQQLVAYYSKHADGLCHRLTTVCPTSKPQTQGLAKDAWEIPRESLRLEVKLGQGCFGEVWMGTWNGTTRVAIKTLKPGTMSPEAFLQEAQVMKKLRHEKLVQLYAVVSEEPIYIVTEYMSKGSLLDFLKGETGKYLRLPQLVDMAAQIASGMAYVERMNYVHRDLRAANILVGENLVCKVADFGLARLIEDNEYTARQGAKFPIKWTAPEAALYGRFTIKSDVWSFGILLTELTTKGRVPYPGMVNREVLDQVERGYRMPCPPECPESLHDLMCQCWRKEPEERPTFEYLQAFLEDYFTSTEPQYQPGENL
T1 sequence (P07947 whole entry): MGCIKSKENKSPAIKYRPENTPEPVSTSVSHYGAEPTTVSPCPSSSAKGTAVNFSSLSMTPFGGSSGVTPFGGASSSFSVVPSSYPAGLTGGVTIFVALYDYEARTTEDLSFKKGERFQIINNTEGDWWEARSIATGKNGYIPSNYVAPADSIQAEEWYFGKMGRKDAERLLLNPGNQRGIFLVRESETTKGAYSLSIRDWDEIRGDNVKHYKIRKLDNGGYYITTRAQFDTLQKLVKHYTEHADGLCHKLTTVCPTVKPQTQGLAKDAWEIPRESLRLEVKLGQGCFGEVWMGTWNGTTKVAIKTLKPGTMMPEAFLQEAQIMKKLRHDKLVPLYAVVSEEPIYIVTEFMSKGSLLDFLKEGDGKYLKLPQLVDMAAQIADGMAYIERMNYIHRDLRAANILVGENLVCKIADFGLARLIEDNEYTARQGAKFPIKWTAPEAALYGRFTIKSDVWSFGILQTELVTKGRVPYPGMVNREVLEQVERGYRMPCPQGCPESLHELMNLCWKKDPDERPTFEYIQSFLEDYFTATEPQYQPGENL
T2 sequence (P06239 whole entry): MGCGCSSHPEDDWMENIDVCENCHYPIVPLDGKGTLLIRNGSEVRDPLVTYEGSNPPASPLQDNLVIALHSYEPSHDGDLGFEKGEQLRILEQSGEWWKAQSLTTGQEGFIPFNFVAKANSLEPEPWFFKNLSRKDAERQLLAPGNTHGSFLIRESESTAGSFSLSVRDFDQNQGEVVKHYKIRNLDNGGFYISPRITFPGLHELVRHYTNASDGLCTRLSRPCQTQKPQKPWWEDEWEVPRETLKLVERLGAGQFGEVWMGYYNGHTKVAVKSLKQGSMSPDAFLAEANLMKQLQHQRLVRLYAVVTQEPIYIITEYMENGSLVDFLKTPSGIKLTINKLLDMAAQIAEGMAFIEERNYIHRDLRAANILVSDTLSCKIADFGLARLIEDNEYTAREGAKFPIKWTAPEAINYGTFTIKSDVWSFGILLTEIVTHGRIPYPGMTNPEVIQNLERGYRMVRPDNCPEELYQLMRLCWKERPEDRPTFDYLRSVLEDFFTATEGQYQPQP

Compound	pIC50 (human Yes1 enzyme)	pIC50 (human Lck enzyme)	pIC50 (human Src enzyme)
Cc1cc(Oc2c(F)cccc2F)ncc1-n1ncc(C(=O)c2cc3cc(OCC(F)F)c(NS(=O)(=O)c4cccc(C#N)n4)cc3[nH]2)c1N [Example 5-1-574, N-[2-[5-amino-1-[6-(2,6-difluorophenoxy)-4-methylpyridin-3-yl]pyrazole-4-carbonyl]-5-(2,2-difluoroethoxy)-1H-indol-6-yl]-6-cyanopyridine-2-sulfonamide]	8.55	7.89	6.27
Cc1cc(Oc2c(F)cccc2F)ncc1-n1ncc(C(=O)c2cc3cc(OCC(F)F)c(NS(=O)(=O)c4cncc(Cl)c4)cc3[nH]2)c1N [Example 5-1-575, N-[2-[5-amino-1-[6-(2,6-difluorophenoxy)-4-methylpyridin-3-yl]pyrazole-4-carbonyl]-5-(2,2-difluoroethoxy)-1H-indol-6-yl]-5-chloropyridine-3-sulfonamide]	8.37	7.34	6.19
Cc1cc(Oc2c(F)cccc2F)ncc1-n1ncc(C(=O)c2cc3cc(OCC(F)F)c(NS(=O)(=O)c4cncc(F)c4)cc3[nH]2)c1N [Example 5-1-576, N-[2-[5-amino-1-[6-(2,6-difluorophenoxy)-4-methylpyridin-3-yl]pyrazole-4-carbonyl]-5-(2,2-difluoroethoxy)-1H-indol-6-yl]-5-fluoropyridine-3-sulfonamide]	8.51	7.85	6.33
Cc1cc2cc(C(=O)c3cnn(-c4cnc(Oc5ccccc5F)cc4C)c3N)[nH]c2cc1NS(=O)(=O)c1cnc(N(C)C)nc1 [Example 5-1-577, N-[2-[5-amino-1-[6-(2-fluorophenoxy)-4-methylpyridin-3-yl]pyrazole-4-carbonyl]-5-methyl-1H-indol-6-yl]-2-(dimethylamino) pyrimidine-5-sulfonamide]	8.18	6.42	5.96
